Test system: Terang soil
Assay: Soil microcosm incubation (nitrification of applied ammonium), Terang soil
Experimental: The soil used in this study was collected from four different locations in Victoria, Australia: (i) a wheat cropping soil from Horsham (36° 45′S, 142° 07′ E), (ii) a rotational cropping soil from Dahlen (36° 37′S, 142° 09′ E), (iii) a vegetable growing soil from Clyde (38° 08′S, 145° 20′ E), and (iv) a pasture soil from Terang (38° 15′S, 142° 52′E). In addition, a sugarcane cropping soil from South Johnstone in northern Queensland (17° 34′S, 145° 57′ E) was also studied. The water content of the soil was calculated before commencing each experiment, from samples that were oven-dried to constant weight. The soil's water-filled pore space (WFPS) was in the range 52%-61%, which is within the recommended 50-70% range for microbial activity due to oxygen and nutrient availability (Fichtner, T., et al., Applied Sciences, 2019, 9, 496).
Soil microcosm incubations were carried out in 250 ml polypropylene specimen containers (Sarstedt, Germany), containing 18.24 g oven dry-weight equivalent of soil. Microcosms were re-wetted and pre-incubated at the test temperature for seven days to revive soil microbial activity. Following pre-incubation, the remaining volume to reach the desired water-filled pore spaces (WFPS %) was applied as one of the following treatment solutions; (NH4)2SO4(Control), (NH4)2SO4+DMPP, or (NH4)2SO4+one of Compounds 1-23. Each treatment was applied in triplicate per soil type, so that n=3 at each time point.
Treatment solutions were prepared such that each microcosm received (NH4)2SO4 at a rate of 100 mg N per kg soil, Compounds 1-23 at 10 mol % of applied N, or DMPP at one of 1.5, 3.6 or 10 mol % of applied N, referred to as L-DMPP, M-DMPP or H-DMPP respectively.
The microcosms were incubated for 0, 3, 7, 14, 21 or 28 days, where day 0 samples were extracted following 1-hour incubation post-treatment. Soil microcosms were aerated and moisture levels were replenished based on weight loss every few days throughout the incubation period.
At the end of each incubation period, soil microcosms were destructively sampled by treatment with 2M KCl (100 mL). After shaking for 1 hour, soil-KCl solutions were filtered (Whatman 42) before storing the filtrates at −20° C. until the conclusion of the experiment. All KCl extracts were then analysed by Segmented Flow Analysis (San++, Skalar, Breda, The Netherlands) for the concentration of nitrogen from ammonium (NH4^+—N) and nitrogen from NO3 and NO2 (NOx^−—N) after appropriate dilutions. Results are reported as the mean of three replicates, errors reported are standard errors of the mean.
Nitrification calculations were performed as previously reported (Aulakh, M., et al., Biology and Fertility of Soils 2001, 33, 258-263; Mahmood, T., et al., Soil Research 2017, 55, 715-722) without correction for the initial baseline concentrations of NH4^+—N or NO3^− N in the untreated soil. For each treatment nitrified NH4^+—N (%) was calculated according to eqn. 1:
where [NH4^+—N]0 is the NH4^+—N concentration (in mg N kg^−1 soil) of the soil on day 0 and [NH4^+—N]t is the NH4^+—N concentration (in mg N kg^−1 soil) of the soil at a given time point t.

Compound: Cc1c[nH]nc1C.O=P(O)(O)O [DMPP, 3,4-dimethylpyrazole phosphate, reference compound]
- Nitrified NH4+—N (%) Day 3 (Terang soil pH 6.5, 25° C., day 3, compounds 10 mol % of applied N, L-DMPP 1.5 mol %, (NH4)2SO4 100 mg N per kg soil): 23.5 ± 3.7%
- Nitrified NH4+—N (%) Day 7 (Terang soil pH 6.5, 25° C., day 7, compounds 10 mol %, L-DMPP 1.5 mol %): 47.8 ± 2.0%
- Nitrified NH4+—N (%) Day 14 (Terang soil pH 6.5, 25° C., day 14, compounds 10 mol %, L-DMPP 1.5 mol %): 89.6 ± 3.1%
- Nitrified NH4+—N (%) Day 28 (Terang soil pH 6.5, 25° C., day 28, compounds 10 mol %, L-DMPP 1.5 mol %): 100 ± 2.5%
- retaining NH4+—N in the soil compared with the fertilised control (Terang soil, 25° C.): most effective treatments

Source: US20220324770A1, “NITRIFICATION INHIBITORS” (The University of Melbourne, priority 2019, published 2022)
